Series [1] can be described thus: Tolerability of IV caspofungin in healthy cats (physical examination, blood count, biochemistry).
Method: (§1) Cats were housed individually and acclimatized to the clinical environment for three days prior to the start of the study with free access to food and water.
(§2) For drug administration, a peripheral catheter (22G IV radiopaque catheter; OPTIVA®, Smiths Medical International Ltd, Lanchashire, UK) was placed into a cephalic vein.
(§3) Blood samples were immediately centrifuged (12, 000 g for 5 min) and plasma was stored at -80°C until assay.
Series [2] has as its system clinical isolates of A. felis from cats with invasive aspergillosis. The conditions noted are these: cited from earlier work. The source says: Echinocandins have concentration-dependent activity against Aspergillus spp.
For series [3] the following is noted: concentration independent, cited from earlier work. The source says: The relationship between antifungal in vivo susceptibility, dosages, drug concentrations within various body compartments and toxicological effects are not completely understood. […] For example, in sino-orbital aspergillosis systemic therapy may not be sufficient to penetrate the site of infection and reduce fungal burden. In addition, our work here is based upon total plasma concentra ...

Details of series [4]: Time at which steady state was achieved: dose or concentration left out as unconfirmed. The following applies: cited from earlier work.
The conditions of series [5]: caspofungin-treated patients with candidemia; cited from earlier work.
Series [6] in a line: Population pharmacokinetic modeling of caspofungin plasma concentrations in healthy cats (HPLC-MS/MS, NONMEM).
Method: as §1, §2, §3
Pharmacokinetic model development employed nonlinear mixed-effects modeling using NONMEM version 7.3 [17], with the Wings for NONMEM 7.3interface (http://wfn.sourceforge.net) and IFort compiler. […] Data manipulation and post-run processing of NONMEM output was conducted using the R data analysis language (Version 3.2.2) and the packages ggplot2, GGally, foreign, tidyr, Hmisc, gdata, doBy, plyr, grid, stringr with associated dependencies [17–28].
The base pharmacokinetic model was developed in a step-wise manner. Pharmacokinetic models were coded using the built-in ADVAN subroutines of NONMEM. Linear kinetic models with 1 and 2 compartments were evaluated. The First Order Conditional Estimation (FOCE) method was used to fit models. The base model was selected on the basis of mechanistic plausibility, visual inspection of goodness-of-fit diagnostic plots, the precision of parameter estimates (se% <30% for fixed, <50% for random effects parameters), and the lowest value of the Akaike’s information criterion (AIC; Eq 1) in accordance with the number of parameters and the final NONMEM derived objective function value (OBJ). The base model was also required to pass the covariance step.
Unless stated otherwise, population parameter variability (PPV) was represented using an exponential error model (Eq 2): Pj=TVP*e^ηj (2) where Pj is the individual value for the parameter in the j^th individual, TVP is the typical population value of P and ηj is an independent random variable with a mean of zero and variance ω^2. PPV was systematically examined on each fixed-effect parameter. Models with and without covariance for P were investigated using the OMEGA BLOCK functionality of NONMEM.
The influence of the additive component of the error was also examined by a comparison with a proportional only error model.
In series [7] the test system is invasive pulmonary aspergillosis. The conditions noted are these: cited from earlier work.
Where [8] appears, read: cats, 1 mg/kg IV infusion over 1 h, two-compartment model, scaled to 4 kg.

Results on 1 compound are retold here after PMC5456383 (PLoS ONE, 2017).

Structures are written as SMILES. Like-named read-outs stand apart in the source and are kept apart here.

Usually clearance stands for the volume of plasma or blood freed of the substance per unit of time. As for `CC[C@H](C)C[C@H](C)CCCCCCCCC(=O)N[C@H]1C[C@@H](O)[C@@H](NCCN)NC(=O)[C@@H]2[C@@H](O)CCN2C(=O)[C@H]([C@H](O)CCN)NC(=O)[C@H]([C@H](O)[C@@H](O)c2ccc(O)cc2)NC(=O)[C@@H]2C[C@@H](O)CN2C(=O)[C@H]([C@@H](C)O)NC1=O` [caspofungin, caspofungin acetate], the Liver enzyme elevations result in series [1] (healthy cats, 1 mg/kg IV daily) is recorded as “did not occur in any cats”. In series [1] (healthy cats, 1 mg/kg IV over 1 h, single and 7 daily doses), the Tolerability result is “well tolerated”. The “Changes on complete blood counts and multiple biochemical analyses” value in series [1] (healthy cats, after consecutive daily dosing 1 mg/kg IV) is “no changes”. The “Body temperature during minor transient hyperthermia” value in series [1] (one cat, during the first infusion only, reference range 37.5–39.1°C) is 39.6–39.8 °C. For the same compound, the Diarrhoea result in series [1] (one cat, resolved within 24 h of the final infusion) is reported as “mild transient diarrhoea”. For the same compound, in series [2] (clinical isolates of A. felis from cats, all except one isolate), the MEC entry is given as “less than 0.06 μg/mL”. For the same compound, the MEC in series [2] (one clinical isolate of A. felis) is 2 µg/mL. In addition, the “Unbound fraction in serum” value in series [3] (human serum) is listed as 3–4%. For the same compound, the “Unbound fraction in serum” value in series [3] (mouse serum) is recorded as 3–4%. Also, in series [4], the “Clearance in the typical 70 kg human” value is listed as 10 mL/min. Moreover, the “Trough concentration at steady state” value in series [4] (humans given 70 mg/kg of caspofungin daily) is 2.57 ± 0.34 µg/mL. Also, the “Time at which steady state was achieved” value in series [4] (humans given of caspofungin daily) was “during the third week of administration”. In series [5], the Frequency of chills was 5.3%; the Frequency of fever is 7.5%; the “Frequency of liver enzyme elevations (ALT, AST or ALP)” value is reported as 13.9%; the “Frequency of nausea or vomiting” value is reported as 5.3%. The Frequency of phlebitis in series [5] is on record as 3.5%. This compound also gave a clearance in series [6] (both, domestic shorthair, plasma, iv, 1 mg/kg) of 0.292 mL/min. In series [6] (setting [8]), the “Q (mL/h) * (WT/4)^0.75, inter-compartmental clearance, population estimate” value is reported as 150 mL/h; the “V1 (mL) * (WT/4), central volume of distribution, population estimate” value is recorded as 214 mL; the “V2 (mL) * (WT/4), peripheral volume of distribution, population estimate” value is given as 143 mL. Further, the “Time at which steady state was achieved” value in series [6] (cats, daily IV dosing) is on record as “approximately 72 h”. Moreover, in series [7] (mice dosed with 1 mg/kg q24 h or 2 mg/kg q48 h), the “Fungal burden versus mice dosed with 1 mg/kg q6 h” value is recorded as “significantly lower fungal burdens”. For the same compound, in series [7] (mice, 4 mg/kg, Cmax: MEC >20), the “Effect on fungal growth at higher doses” value was “paradoxical effect on fungal growth resulting in increased burdens”.
